Patent publication US20170158702A1, “MULTIVALENT RAS BINDING COMPOUNDS” (KYRAS THERAPEUTICS, INC., priority 2015, published 2017)
Where a name gives a salt, the structure may show the parent alone.

Experiments:
Assay type in all cases: cell-based
MIA PaCa-2 = assay: Viability assay with MIA PaCa-2; conditions: MIA PaCa-2, viability assay per Example 57
Procedure: (§1) NCI-H460 (Epithelial lung tissue; carcinoma; large cell lung cancer) were cultured in RPMI Medium 1640 (Invitrogen-22400105) supplemented with 10% fetal bovine serum (FBS; Invitrogen-10099141). All the cell lines were maintained in a humidified incubator at 37° C. with 5% CO2. Cell culture media and supplements were purchased from Invitrogen, and tissue culture flasks were purchased from Corning, 96-well plates were purchased from Greiner. CellTiter-Glo Luminescent Cell Viability Assay kits were purchased from Promega (Promega-G7573), cells counter Vi-Cell was purchased from Beckman, D300e digital dispenser was purchased from Tecan, detection instrument Envision was purchased from PerkinElmer.
(§2) Paclitaxel was purchased from SELLECK, test compounds, such as any one of the compounds disclosed herein, attained solubility in DMSO and when diluted into culture media. DMSO, solutions containing the test compounds, and culture media were warmed to 37° C. or room temperature for the solution preparation and dilutions.
(§3) NCI-H460 Cell line were seeded in 96-well plates (1200/well) and allowed to adhere to overnight (100 uL/well), for drug treatments with 2 fold dilution, 9 dose points, triplicates or vehicle control, compound stock solutions were prepared in DMSO and use D300e digital dispenser to add compounds to the wells to give the indicated final drug concentrations. Final DMSO concentration was 0.5%. Cellular ATP concentrations were assessed by using the CellTiter-Glo Cell Viability Assay as per the manufacturer's instructions 72 h after compounds addition. Additional cells lines were assayed with any one of the compounds disclosed herein according to the procedures described for the viability assay with NCI-H460.
A viability assay with MIA PaCa-2 (Epithelial pancreas tissue; carcinoma) was performed with compounds listed in Table 15, according to the procedures described in Example 57.

HT-29 = assay: Viability assay with HT-29; conditions: HT-29, viability assay per Example 57
Procedure: as §1, §2, §3
A viability assay with HT-29 (Colorectal adenocarcinoma) was performed with compounds listed in Table 18 according to the procedures described in Example 57.

NCI-H460 = assay: Viability assay with NCI-H460 (CellTiter-Glo cytotoxicity assay, 72 h); conditions: NCI-H460 cell line, 72 h after compounds addition
Procedure: as §1, §2, §3

Compound | EC50 (MIA PaCa-2) [µM] | EC50 (HT-29) [µM] | EC50 (NCI-H460) [µM]
COc1cccc(CCCCN(C)Cc2ccc3c(c2)c(-c2ccc(OC(F)(F)F)cc2CN)cn3CCCN)c1 [C298; HCl] | 5 to 10 | ≤ 5 | ≤ 5
COc1cc(NC2CCN(Cc3ccc4c(c3)c(-c3ccc(OC(F)(F)F)cc3CN)cn4CCCN)CC2)cc(OC)c1 [C278; HCl] | ≤ 5 | ≤ 5 | ≤ 5
NCCCn1cc(-c2ccc(OC(F)(F)F)cc2CN)c2cc(CN3CCC4(CCN(Cc5ccccc5Cl)CC4)C3)ccc21 [C250; HCl] | ≤ 5 | ≤ 5 | ≤ 5
CNCc1cc(OC(F)(F)F)ccc1-c1cn(CCCN)c2ccc(CN3CCN(Cc4ccccc4Cl)CC3)cc12 [C238; HCl] | ≤ 5 | ≤ 5 | ≤ 5
NCCCn1cc(-c2ccc(OC(F)(F)F)cc2)c2cc(CN3CCC(Oc4ccc(Cl)cc4)CC3)ccc21 [C216; HCl] | ≤ 5 | ≤ 5 | ≤ 5
COc1cc(CN2CCN(Cc3ccc4c(c3)c(-c3ccc(OC(F)(F)F)cc3CN)cn4C3CCNCC3)CC2)cc(OC)c1 [C275; HCl] | ≤ 5 | ≤ 5 | ≤ 5
NCCCn1cc(-c2ccc(CO)cc2)c2cc(CN3CCN(Cc4ccccc4Cl)CC3)ccc21 [C142; Formic Acid] | 5 to 10 | 5 to 10 | ≤ 5
COc1cc(OC)cc(C(C)(C)N2CCN(Cc3ccc4c(c3)c(-c3ccc(OC(F)(F)F)cc3CN)cn4CCCN)CC2)c1 [C285; HCl] | ≤ 5 | ≤ 5 | ≤ 5
Cn1cc(-c2cn(CCCN)c3ccc(CN4CCN(Cc5ccccc5Cl)CC4)cc23)cn1 [C191; HCl] | 5 to 10 | 5 to 10 | 5 to 10
Nc1ccc(Cn2cc(-c3ccc(OC(F)(F)F)cc3)c3cc(CN4CCN(Cc5ccccc5Cl)CC4)ccc32)cc1 [C220; Formic Acid] | 5 to 10 | 5 to 10 | 5 to 10
NCCCn1cc(-c2ccc(OC(F)(F)F)cc2)c2cc(CN3CCC(Nc4ccc(Cl)cc4)CC3)ccc21 [C210; HCl] | ≤ 5 | ≤ 5 | ≤ 5
NCCCn1cc(-c2ccc(OC(F)(F)F)cc2N)c2cc(CN3CCN(Cc4ccccc4Cl)CC3)ccc21 [C239; Formic Acid] | ≤ 5 | ≤ 5 | ≤ 5
NCCCn1cc(-c2ccc(OC(F)(F)F)cc2CN)c2cc(CN3CCC(Nc4cccc(Cl)c4)CC3)ccc21 [C247; HCl] | ≤ 5 | ≤ 5 | ≤ 5
FC(F)(F)Oc1ccc(-c2cn(CCCCNc3ccccn3)c3ccc(CN4CCN(Cc5ccccc5Cl)CC4)cc23)cc1 [C202; Formic Acid] | 5 to 10 | 5 to 10 | ≤ 5
NCCCn1cc(-c2ccc(OC(F)(F)F)cc2CN)c2cc(S(=O)(=O)N3CCN(Cc4ccccc4Cl)CC3)ccc21 [C245; Formic Acid] | ≤ 5 | ≤ 5 | ≤ 5
NCCCn1cc(-c2ccc(OC(F)(F)F)cc2)c2cc(CN3CCC(O)CC3)ccc21 [C295; HCl] | ≤ 5 | ≤ 5 | ≤ 5
COc1cccc(CN2CCN(Cc3ccc4c(c3)c(-c3ccc(OC(F)(F)F)cc3CN)cn4C3CCNCC3)CC2)c1 [C274; HCl] | ≤ 5 | ≤ 5 | ≤ 5
CCC1CCN(Cc2ccc3c(c2)c(-c2ccc(C)cc2CN)cn3CCCN)CC1 [C256; HCl] | 5 to 10 | 5 to 10 | 5 to 10
Cc1ncc(CN2CCN(Cc3ccc4c(c3)c(-c3ccc(OC(F)(F)F)cc3)cn4CCCN)CC2)[nH]1 [C195; HCl] | 5 to 10 | 5 to 10 | 5 to 10
NCCCn1cc(-c2ccc(OC(F)(F)F)cc2)c2cc(CN3CCC(Nc4cccc(Cl)c4)CC3)ccc21 [C214; Formic Acid] | ≤ 5 | ≤ 5 | ≤ 5
CCC1CCN(Cc2ccc3c(c2)c(-c2ccc(OC(F)(F)F)cc2CN)cn3CCCN)CC1 [C261; HCl] | ≤ 5 | ≤ 5 | ≤ 5
NCCCn1cc(-c2ccc(CCN)cc2)c2cc(CN3CCN(Cc4ccccc4Cl)CC3)ccc21 [C188; HCl] | 5 to 10 | 5 to 10 | 5 to 10
CC(C)(N)CCCn1cc(-c2ccc(OC(F)(F)F)cc2CN)c2cc(CN3CCN(Cc4ccccc4Cl)CC3)ccc21 [C251; HCl] | ≤ 5 | ≤ 5 | ≤ 5

Compound | EC50 (MIA PaCa-2) [µM] | EC50 (HT-29) [µM] | EC50 (NCI-H460) [µM]
NCCCn1cc(-c2ccc(OC(F)(F)F)cc2CN)c2cc(CN3CCC4(CCCN(Cc5ccccc5Cl)C4)CC3)ccc21 [C253; HCl] | ≤ 5 | ≤ 5 | ≤ 5
NCCCn1cc(-c2ccc(OC(F)(F)F)cc2CN)c2cc(CN3CCC4(CC3)CCN(Cc3ccccc3Cl)C4)ccc21 [C249; Formic Acid] | ≤ 5 | ≤ 5 | ≤ 5
Cc1ccc(CN2CCN(Cc3ccc4c(c3)c(-c3ccc(OC(F)(F)F)cc3)cn4CCCN)CC2)cc1 [C146; HCl] | ≤ 5 | ≤ 5 | ≤ 5
FC(F)(F)Oc1ccc(-n2cc(C3CCNCC3)c3cc(CN4CCN(Cc5ccccc5Cl)CC4)ccc32)cc1 [C217; HCl] | ≤ 5 | ≤ 5 | ≤ 5
FC(F)(F)Oc1ccc(-c2cn(CC3CCCNC3)c3ccc(CN4CCN(Cc5ccccc5Cl)CC4)cc23)cc1 (stereo not drawn) [C230; HCl] | ≤ 5 | ≤ 5 | ≤ 5
NCc1cc(OC(F)(F)F)ccc1-c1cn(C2CCNCC2)c2ccc(CN3CCN(Cc4ccccc4Cl)CC3)cc12 [C254; HCl] | ≤ 5 | ≤ 5 | ≤ 5
FC(F)(F)Oc1ccc(-c2cn(CCNc3ccccn3)c3ccc(CN4CCN(Cc5ccccc5Cl)CC4)cc23)cc1 [C199; HCl] | 5 to 10 | 5 to 10 | 5 to 10
Cn1nccc1CN1CCN(Cc2ccc3c(c2)c(-c2ccc(OC(F)(F)F)cc2)cn3CCCN)CC1 [C128; HCl] | ≤ 5 | ≤ 5 | ≤ 5
NCCCn1cc(-c2ccc(OC(F)(F)F)cc2)c2cc(OC3CCN(Cc4ccccc4Cl)CC3)ccc21 [C242; HCl] | 5 to 10 | 5 to 10 | 5 to 10
COc1ccc(-c2cn(CCCN)c3ccc(CN4CCN(Cc5ccccc5Cl)CC4)cc23)c(CNS(C)(=O)=O)c1 [C287; HCl] | ≤ 5 | ≤ 5 | ≤ 5
NCCCn1cc(-c2ccc(OC(F)(F)F)cc2)c2cc(CN3CCN(Cc4ccn[nH]4)CC3)ccc21 [C187; HCl] | ≤ 5 | ≤ 5 | ≤ 5
NCCCn1cc(-c2ccc(OC(F)(F)F)cc2)c2cc(CN3CCN(Cc4ccc(Cl)cc4)CC3)ccc21 [C137; HCl] | ≤ 5 | ≤ 5 | ≤ 5
COc1ccccc1CN1CCN(Cc2ccc3c(c2)c2ccccc2n3CCCN)CC1 [C268; HCl] | 5 to 10 | ≤ 5 | 5 to 10
NCc1cccc(-n2cc(-c3ccc(OC(F)(F)F)cc3)c3cc(CN4CCN(Cc5ccccc5Cl)CC4)ccc32)c1 [C150; Formic acid] | ≤ 5 | ≤ 5 | ≤ 5
COc1cc(OC)cc(OC2CCN(Cc3ccc4c(c3)c(-c3ccc(OC(F)(F)F)cc3CN)cn4CCCN)CC2)c1 [C281; HCl] | ≤ 5 | ≤ 5 | ≤ 5
CN(CCN(C)C(=O)c1ccc2c(c1)c(-c1ccc(OC(F)(F)F)cc1)cn2CCCN)Cc1ccccc1Cl [C193; HCl] | ≤ 5 | ≤ 5 | ≤ 5
NCCCn1cc(-c2ccc(OC(F)(F)F)cc2CN)c2cc(CN3CCCC(NCC(F)(F)F)C3)ccc21 (stereo not drawn) [C276; HCl] | 5 to 10 | 5 to 10 | ≤ 5
COc1cc(CN(C)CCN(C)Cc2ccc3c(c2)c(-c2ccc(OC(F)(F)F)cc2CN)cn3CCCN)cc(OC)c1 [C297; HCl] | ≤ 5 | ≤ 5 | ≤ 5
NCCCn1cc(-c2ccc(OC(F)(F)F)cc2)c2c(CN3CCN(CCOc4ccc(Cl)cc4)CC3)cccc21 [C144; HCl] | ≤ 5 | ≤ 5 | ≤ 5
FC(F)(F)Oc1ccc(-c2cn(CC3CCNCC3)c3ccc(CN4CCN(Cc5ccccc5Cl)CC4)cc23)cc1 [C171; HCl] | ≤ 5 | ≤ 5 | ≤ 5
NCCCn1cc(-c2c(F)cccc2C(N)=O)c2cc(CN3CCN(Cc4ccccc4Cl)CC3)ccc21 [C289; HCl] | 5 to 10 | 5 to 10 | 5 to 10
NCC(=O)N1CCC(n2cc(-c3ccc(OC(F)(F)F)cc3)c3cc(CN4CCN(Cc5ccccc5Cl)CC4)ccc32)CC1 [C203; HCl] | ≤ 5 | ≤ 5 | ≤ 5
COc1ccc(-c2cn(CCCN)c3ccc(CN4CCN(Cc5ccccc5Cl)CC4)cc23)cn1 [C141; HCl] | ≤ 5 | ≤ 5 | ≤ 5
